Test results taken from PubChem BioAssay AID256 (DTP/NCI, 2004).
Values joined by “and” are separate entries in the source; they are usually repeats but may differ in a detail not shown here. Identical values can stand only once. Inconclusive results and toxic doses are left out. How the source made its calls: active means survival T/C of 150% or more; inactive means T/C below 125% in these data.

System: CD2F1 mice, L1210 leukemia ip, survival T/C
Experiment: NCI In Vivo Anticancer Drug Screen. Data for tumor model L1210 Leukemia (intraperitoneal) in CD2F1 (CDF1) mice
Conditions: higher = longer survival
Method in brief: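 Transplantable tumor in mice; compound-treated vs vehicle-treated groups. Read-out = treated/control ratio of the measured endpoint.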

[1] = endpoint: mean survival time, dose: 100.0 mg/kg/injection, schedule: Q01DX009 (ip), vehicle: saline with Tween-80
[2] = endpoint: mean survival time, dose: 200.0 mg/kg/injection, schedule: Q01DX009 (ip), vehicle: saline with Tween-80
[3] = endpoint: mean survival time, dose: 100.0 mg/kg/injection, schedule: Q04DX003 (ip), vehicle: saline with Tween-80
[4] = endpoint: mean survival time, dose: 200.0 mg/kg/injection, schedule: Q04DX003 (ip), vehicle: saline with Tween-80
[5] = endpoint: mean survival time, dose: 400.0 mg/kg/injection, schedule: Q04DX003 (ip), vehicle: saline with Tween-80
[6] = endpoint: mean survival time, dose: 100.0 mg/kg/injection, schedule: Q01DX001 (ip), vehicle: saline with Tween-80
[7] = endpoint: mean survival time, dose: 200.0 mg/kg/injection, schedule: Q01DX001 (ip), vehicle: saline with Tween-80
[8] = endpoint: mean survival time, dose: 400.0 mg/kg/injection, schedule: Q01DX001 (ip), vehicle: saline with Tween-80
[9] = endpoint: mean survival time, dose: 100.0 mg/kg/injection, schedule: Q04DX002 (ip), vehicle: saline with Tween-80
[10] = endpoint: mean survival time, dose: 200.0 mg/kg/injection, schedule: Q04DX002 (ip), vehicle: saline with Tween-80
[11] = endpoint: mean survival time, dose: 400.0 mg/kg/injection, schedule: Q04DX002 (ip), vehicle: saline with Tween-80

Measured: T/C

CCC(c1ccccc1)C(CC)c1ccc(N(C)C)cc1 (centres undefined)
inactive: endpoint: mean survival time, dose: 50.0 mg/kg/injection, schedule: Q01DX009 (ip), vehicle: Klucel (hydroxypropylcellulose) (HPC) 95 % of control | endpoint: mean survival time, dose: 100.0 mg/kg/injection, schedule: Q01DX009 (ip), vehicle: Klucel (hydroxypropylcellulose) (HPC) 94 % of control | endpoint: mean survival time, dose: 200.0 mg/kg/injection, schedule: Q01DX009 (ip), vehicle: Klucel (hydroxypropylcellulose) (HPC) 91 % of control | endpoint: mean survival time, dose: 400.0 mg/kg/injection, schedule: Q01DX009 (ip), vehicle: Klucel (hydroxypropylcellulose) (HPC) 97 % of control

Cc1ccc(NC(=O)OCCOc2ccc(Cl)cc2)cc1[N+](=O)[O-]
inactive: endpoint: mean survival time, dose: 50.0 mg/kg/injection, schedule: Q01DX009 (ip), vehicle: saline with Tween-80 96 % of control | [1] 88 % of control | [2] 88 % of control

Cc1ccc(Cl)cc1NS(=O)(=O)c1cccc([N+](=O)[O-])c1
inactive: [3] 98 % of control | [4] 106 % of control | [5] 88 % of control

Cc1cscc(C)c1=S
inactive: endpoint: mean survival time, dose: 100.0 mg/kg/injection, schedule: Q04DX003 (ip), vehicle: saline sonified 98 % of control | endpoint: mean survival time, dose: 200.0 mg/kg/injection, schedule: Q04DX003 (ip), vehicle: saline sonified 98 % of control | endpoint: mean survival time, dose: 400.0 mg/kg/injection, schedule: Q04DX003 (ip), vehicle: saline sonified 100 % of control

CC1=C(/C=C/C(C)=C/C=C/C(C)=C/C(=O)Nc2ccc(O)cc2)C(C)(C)CCC1
inactive: endpoint: median survival time, dose: 12.5 mg/kg/injection, schedule: Q01DX005 (ip), vehicle: saline with Tween-80 98 % of control | endpoint: median survival time, dose: 25.0 mg/kg/injection, schedule: Q01DX005 (ip), vehicle: saline with Tween-80 101 % of control | endpoint: median survival time, dose: 50.0 mg/kg/injection, schedule: Q01DX005 (ip), vehicle: saline with Tween-80 98 % of control | endpoint: median survival time, dose: 100.0 mg/kg/injection, schedule: Q01DX005 (ip), vehicle: saline with Tween-80 92 % of control | endpoint: median survival time, dose: 200.0 mg/kg/injection, schedule: Q01DX005 (ip), vehicle: saline with Tween-80 96 % of control

O=C1C(=O)c2ccccc2C(O)=C1[N+](=O)[O-]
inactive: [1] 96 % of control | [3] 100 % of control | [4] 103 % of control | [5] 112 % of control

CCOC(=O)N1CCc2nc3cc(OC)ccc3cc21
inactive: [6] 103 % of control | [7] 98 % of control | [8] 98 % of control

CN(C)S(=O)(=O)C(C)(C)c1ccccc1
inactive: [6] 100 % of control | [1] 96 % of control | [3] 94 % of control | [7] 101 % of control | [2] 96 % of control | [4] 94 % of control | [8] 100 % of control | [5] 96 % of control

C=C1CC23CC[C@H]4[C@@](C)(CCC[C@@]4(C)C(=O)O)[C@@H]2CC[C@]1(OC1OC(COC(C)=O)C(OC(C)=O)C(OC(C)=O)C1OC1OC(COC(C)=O)C(OC(C)=O)C(OC(C)=O)C1OC(C)=O)C3 (some centres undefined)
inactive: [9] 93 % of control | [10] 89 % of control | [11] 96 % of control

CCOc1ccccc1NCN1C(=O)c2ccccc2C1=O
inactive: endpoint: mean survival time, dose: 50.0 mg/kg/injection, schedule: Q04DX002 (ip), vehicle: saline with Tween-80 95 % of control | [9] 91 % of control | [10] 95 % of control | [11] 88 % of control

N#C/C(=C\c1c[nH]c2ccccc12)C(N)=O
inactive: endpoint: mean survival time, dose: 100.0 mg/kg/injection, schedule: Q01DX009 (ip), vehicle: other 93 % of control | [1] 97 % of control | [2] 92 % of control | endpoint: mean survival time, dose: 400.0 mg/kg/injection, schedule: Q01DX009 (ip), vehicle: other 88 % of control | endpoint: mean survival time, dose: 400.0 mg/kg/injection, schedule: Q01DX009 (ip), vehicle: saline with Tween-80 97 % of control

O=NN(CCCl)C(=O)NCCc1cccc[n+]1[O-]
active: endpoint: mean survival time, dose: 25.0 mg/kg/injection, schedule: Q01DX001 (ip), vehicle: water 173 % of control | endpoint: mean survival time, dose: 50.0 mg/kg/injection, schedule: Q01DX001 (ip), vehicle: water 309 % of control | endpoint: mean survival time, dose: 100.0 mg/kg/injection, schedule: Q01DX001 (ip), vehicle: water 240 % of control
inactive: endpoint: mean survival time, dose: 1.56 mg/kg/injection, schedule: Q01DX001 (ip), vehicle: water 108 % of control | endpoint: mean survival time, dose: 3.13 mg/kg/injection, schedule: Q01DX001 (ip), vehicle: water 116 % of control | endpoint: mean survival time, dose: 6.25 mg/kg/injection, schedule: Q01DX001 (ip), vehicle: water 121 % of control

[Cl][Pt][Cl].[NH-]CC[NH-].[NH-]CC[NH-]
inactive: endpoint: mean survival time, dose: 12.5 mg/kg/injection, schedule: Q04DX003 (ip), vehicle: water 92 % of control and 100 % of control and 95 % of control | endpoint: mean survival time, dose: 25.0 mg/kg/injection, schedule: Q04DX003 (ip), vehicle: water 88 % of control and 89 % of control and 100 % of control | endpoint: mean survival time, dose: 50.0 mg/kg/injection, schedule: Q04DX003 (ip), vehicle: water 95 % of control and 97 % of control | endpoint: mean survival time, dose: 100.0 mg/kg/injection, schedule: Q04DX003 (ip), vehicle: water 90 % of control and 91 % of control and 95 % of control | endpoint: mean survival time, dose: 200.0 mg/kg/injection, schedule: Q04DX003 (ip), vehicle: water 95 % of control and 93 % of control

CCOC(=O)C(C)(C(=O)OCC)n1cnc2c1c(=O)n(C)c(=O)n2C
inactive: endpoint: mean survival time, dose: 100.0 mg/kg/injection, schedule: Q01DX005 (ip), vehicle: distilled water + Tween-80 100 % of control | endpoint: mean survival time, dose: 200.0 mg/kg/injection, schedule: Q01DX005 (ip), vehicle: distilled water + Tween-80 102 % of control | endpoint: mean survival time, dose: 400.0 mg/kg/injection, schedule: Q01DX005 (ip), vehicle: distilled water + Tween-80 107 % of control

Nc1ccc(Cl)c([N+](=O)[O-])c1
inactive: endpoint: mean survival time, dose: 100.0 mg/kg/injection, schedule: Q04DX003 (ip), vehicle: Klucel (hydroxypropylcellulose) (HPC) 94 % of control | endpoint: mean survival time, dose: 200.0 mg/kg/injection, schedule: Q04DX003 (ip), vehicle: Klucel (hydroxypropylcellulose) (HPC) 91 % of control | endpoint: mean survival time, dose: 400.0 mg/kg/injection, schedule: Q04DX003 (ip), vehicle: Klucel (hydroxypropylcellulose) (HPC) 89 % of control

O=C(NC1CCCC2CCCCC21)c1ccccc1 (centres undefined)
inactive: [6] 90 % of control | [7] 88 % of control | [8] 90 % of control

CCC(c1ccc(O)c(C2CCCCC2)c1)C(CC)c1ccc(OC(=O)c2ccccc2)c(C2CCCCC2)c1 (centres undefined)
inactive: endpoint: mean survival time, dose: 75.0 mg/kg/injection, schedule: Q01DX001 (ip), vehicle: saline 109 % of control | endpoint: mean survival time, dose: 150.0 mg/kg/injection, schedule: Q01DX001 (ip), vehicle: saline 100 % of control | endpoint: mean survival time, dose: 300.0 mg/kg/injection, schedule: Q01DX001 (ip), vehicle: saline 106 % of control

CCCCCCCCCC(O)CCCCCC (centres undefined)
inactive: endpoint: mean survival time, dose: 200.0 mg/kg/injection, schedule: Q04DX003 (ip), vehicle: other 108 % of control | endpoint: mean survival time, dose: 400.0 mg/kg/injection, schedule: Q04DX003 (ip), vehicle: other 96 % of control

CCCCCCCCCCCCCCCC(=O)N(C/C=C/CN(C(=O)CCCCCCCCCCCCCCC)C(C)CCCN(CC)CC)C(C)CCCN(CC)CC (centres undefined)
inactive: endpoint: mean survival time, dose: 12.5 mg/kg/injection, schedule: Q01DX009 (ip), vehicle: other 97 % of control | endpoint: mean survival time, dose: 25.0 mg/kg/injection, schedule: Q01DX009 (ip), vehicle: other 94 % of control

O=C1NC(=O)C([P+](c2ccccc2)(c2ccccc2)c2ccccc2)C1=O (centres undefined)
inactive: [3] 102 % of control | [4] 102 % of control | [5] 98 % of control

Cc1cc(C)c(NS(=O)(=O)c2ccccc2)c(C)n1
inactive: [6] 103 % of control | [7] 104 % of control | [8] 104 % of control

[NH-]C1CCCCC1[NH-].[NH-]C1CCCCC1[NH-].[Ni] (centres undefined)
inactive: [9] 110 % of control

CC1OC(OC2C(OC3CCC4(C)C(CCC5(C)C4CC=C4C6CC(C)(C)CCC6(CO)C(O)CC45C)C3(C)C)OC(CO)C(OC3OC(COC4OC(CO)C(O)C(O)C4O)C(O)C(O)C3O)C2O)C(O)C(O)C1O (centres undefined)
inactive: endpoint: mean survival time, dose: 50.0 mg/kg/injection, schedule: Q01DX001 (sc), vehicle: steriod suspending solution 103 % of control

CC1=CC(=O)C(c2ccc(O)cc2O)=CC1=O
inactive: endpoint: mean survival time, dose: 2.5 mg/kg/injection, schedule: Q01DX009 (ip), vehicle: saline with Tween-80 96 % of control | endpoint: mean survival time, dose: 2.5 mg/kg/injection, schedule: Q04DX003 (ip), vehicle: saline with Tween-80 102 % of control | endpoint: mean survival time, dose: 5.0 mg/kg/injection, schedule: Q01DX009 (ip), vehicle: saline with Tween-80 91 % of control | endpoint: mean survival time, dose: 5.0 mg/kg/injection, schedule: Q04DX003 (ip), vehicle: saline with Tween-80 104 % of control | endpoint: mean survival time, dose: 10.0 mg/kg/injection, schedule: Q01DX009 (ip), vehicle: saline with Tween-80 95 % of control | endpoint: mean survival time, dose: 10.0 mg/kg/injection, schedule: Q04DX003 (ip), vehicle: saline with Tween-80 95 % of control

NC1=C(N)C(=O)NC(N)N1 (centres undefined)
inactive: endpoint: mean survival time, dose: 100.0 mg/kg/injection, schedule: Q04DX002 (ip), vehicle: saline 102 % of control | endpoint: mean survival time, dose: 200.0 mg/kg/injection, schedule: Q04DX002 (ip), vehicle: saline 102 % of control | endpoint: mean survival time, dose: 400.0 mg/kg/injection, schedule: Q04DX002 (ip), vehicle: saline 100 % of control
